No end group written: not given here.
What was measured:
[1] = tested on: DSS-induced colitis; details: cited from earlier work; for Therapeutic effect in colitis: 25 nmol/kg subcutaneously, previous studies
Method: Nevertheless, the 25 nmol/kg dose was selected for further evaluation (Figure 5). […] The in vivo pharmacological studies were conducted by a contract research organization (CRO), LSI Medience Ltd. (Kumamoto, Japan), and were not in an academic setting. Although the studies were conducted professionally, a blinded evaluation was not implemented, which may have introduced bias. Additionally, histological analysis of the colonic tissue was not performed. […] Future pharmacologi ...

[2] = Stability (degradation) in human serum; type: in vitro ADME; details: pooled human serum, 100 μL in 200 μL (10 mM NaH2PO4 pH 7.1, 100 mM NaCl), 37 °C, 60 min; fluorescence immunoassay; mean, n = 3; read-out: % remaining in human serum after 60 min
Text: Error bars are shorter than the symbol size.

Molecule	Therapeutic effect in colitis [1]	remaining at 1 h [2]	Histological analysis of colonic tissue ([1]; previous study)
60 kDa PEGylated AM ({PEG 60 kDa}-YRQSMNNFQGLRSFGCRFGTCTVQKLAHQIYQFTDKDKDNVAPRSKISPQGY; ends and bridges not checked; UniProt P35318 95-146, looked up) [60 k PEG-AM]	significant therapeutic effects	–	–
CC[C@H](C)[C@H](NC(=O)[C@H](CCC(N)=O)NC(=O)[C@H](Cc1c[nH]cn1)NC(=O)[C@H](C)NC(=O)[C@H](CC(C)C)NC(=O)[C@H](CCCCN)NC(=O)[C@H](CCC(N)=O)NC(=O)[C@@H](NC(=O)[C@@H](NC(=O)[C@@H]1CSSC[C@H](NC(=O)CNC(=O)[C@H](Cc2ccccc2)NC(=O)[C@H](CO)NC(=O)[C@H](CCCNC(=N)N)NC(=O)[C@H](CC(C)C)NC(=O)CNC(=O)[C@H](CCC(N)=O)NC(=O)[C@H](Cc2ccccc2)NC(=O)[C@H](CC(N)=O)NC(=O)[C@H](CC(N)=O)NC(=O)[C@H](CCSC)NC(=O)[C@H](CO)NC(=O)[C@H](CCC(N)=O)NC(=O)[C@H](CCCNC(=N)N)NC(=O)[C@@H](N)Cc2ccc(O)cc2)C(=O)N[C@@H](CCCNC(=N)N)C(=O)N[C@@H](Cc2ccccc2)C(=O)NCC(=O)N[C@@H]([C@@H](C)O)C(=O)N1)[C@@H](C)O)C(C)C)C(=O)N[C@@H](Cc1ccc(O)cc1)C(=O)N[C@@H](CCC(N)=O)C(=O)N[C@@H](Cc1ccccc1)C(=O)N[C@H](C(=O)N[C@@H](CC(=O)O)C(=O)N[C@@H](CCCCN)C(=O)N[C@@H](CC(=O)O)C(=O)N[C@@H](CCCCN)C(=O)N[C@@H](CC(=O)O)C(=O)N[C@@H](CC(N)=O)C(=O)N[C@H](C(=O)N[C@@H](C)C(=O)N1CCC[C@H]1C(=O)N[C@@H](CCCNC(=N)N)C(=O)N[C@@H](CO)C(=O)N[C@@H](CCCCN)C(=O)N[C@H](C(=O)N[C@@H](CO)C(=O)N1CCC[C@H]1C(=O)N[C@@H](CCC(N)=O)C(=O)NCC(=O)N[C@@H](Cc1ccc(O)cc1)C(N)=O)[C@@H](C)CC)C(C)C)[C@@H](C)O [AM, Adrenomedullin]	–	9.45%	–
20 kDa PEGylated AM ({PEG 20 kDa}-YRQSMNNFQGLRSFGCRFGTCTVQKLAHQIYQFTDKDKDNVAPRSKISPQGY; ends and bridges not checked; UniProt P35318 95-146, looked up) [20 k PEG-AM]	significant therapeutic effects	–	histological improvements were observed, but were not statistically significant

Reference: PMC12524408 (International Journal of Molecular Sciences, 2025)
